This is an account of results in ChEMBL document CHEMBL1201862, “PubChem BioAssay data set” (2004).

Structures are written as SMILES.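 These data come from cells grown in 96-well plates and exposed to compound for 48 hours at five concentrations. At the GI50, growth is halved.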 Activity calls are given as the source filed them. Cut-off read from the data, not from the text of the source: active = GI50 up to about 1.1 µM and inactive = higher.

Some test systems named below: COLO 205; T47D; HT-29; SF-295; DU-145; RXF 393; SW-620; OVCAR-8; NCI-H226; OVCAR-3; CAKI-1; OVCAR-4; NCI-H23; HCT-15; SF-268; KM12; U-251; BT-549; MDA-MB-435; HCC 2998.
Holding throughout (assay): DTP human tumour cell line panel, 48 h

In the case of `C1CCNCC1.Oc1ncnc2[nH]cc(CN3CCCCC3)c12`, the GI50 in the test with COLO 205 is 73.3 µM (inactive); in the test with T47D, 57.9 µM (inactive); in the test on HT-29 it was 39.3 µM (inactive); in the test with SF-295, > 100 µM (inactive); in the test on DU-145, 32.5 µM (inactive); in the test with RXF 393, 43.8 µM (inactive). Also, the GI50 was 38 µM (inactive) with SW-620; > 100 µM (inactive) in the test on OVCAR-8; > 100 µM (inactive) with NCI-H226; > 100 µM (inactive) in the test on OVCAR-3; > 100 µM (inactive) with CAKI-1; 62.4 µM (inactive) in the test on OVCAR-4. Further, the GI50 with NCI-H23 was > 100 µM (inactive); with HCT-15, greater than 100 µM; in the test on SF-268 it was 87.9 µM (inactive); in the test on KM12, > 100 µM (inactive); in the test with U-251 it was > 100 µM (inactive); with BT-549, > 100 µM (inactive). Moreover, the GI50 in the test with MDA-MB-435 is > 100 µM (inactive).
Take `Cc1ccc(S(=O)(=O)N/N=C2\C(=O)Nc3cc(O)c(C(=O)O)cc32)cc1`: the GI50 with COLO 205, with T47D, in the test on HT-29, in the test on SF-295, in the test on DU-145 and in the test with RXF 393 was > 100 µM (inactive) throughout. Besides, the GI50 in the test on SW-620, in the test on OVCAR-8, in the test on NCI-H226, in the test on OVCAR-3, with CAKI-1 and in the test on OVCAR-4 was > 100 µM (inactive) each time. For the same compound, the GI50 in the test on NCI-H23 is > 100 µM (inactive); with HCT-15 it was greater than 100 µM; in the test on HCC 2998 it was > 100 µM (inactive); with SF-268 it was > 100 µM (inactive); with KM12, > 100 µM (inactive); in the test with U-251 it was > 100 µM (inactive). Also, the GI50 with BT-549 and in the test with MDA-MB-435 was > 100 µM (inactive) each time.
Consider `C/C(=N\NC(=S)N1CC2CCC(CC2)C1)c1cccc(C)n1`, for which the GI50 in the test with COLO 205 is 0.01 µM (active); in the test on T47D, 0.01 µM (active); in the test on HT-29 it was 0.01 µM (active); in the test with SF-295, 0.445 µM (active); in the test on DU-145 it was 0.617 µM (active); in the test with RXF 393 it was 3.72 µM (inactive). In addition, the concentration for 50% growth inhibition (GI50) is 0.148 µM (active) in the test on SW-620; 0.294 µM (active) in the test on OVCAR-8; 0.841 µM (active) in the test with NCI-H226; 0.01 µM (active) in the test on OVCAR-3; 1.11 µM (active) in the test on CAKI-1; 0.352 µM (active) in the test with OVCAR-4. Moreover, the GI50 with NCI-H23 was 2.49 µM (inactive); with HCT-15 it was 0.537 µM; in the test with HCC 2998, 2.16 µM (inactive); with SF-268, 0.533 µM (active); in the test with KM12, 0.422 µM (active); in the test with U-251, 0.551 µM (active). Further, the GI50 in the test on BT-549 was 1.32 µM (inactive); in the test with MDA-MB-435 it was 1.77 µM (inactive).
For the compound `CCCCCCOc1ccc(C(=O)N(C)O)cc1`, the GI50 in the test with COLO 205 is 14.2 µM (inactive); in the test with T47D, 23.6 µM (inactive); in the test with HT-29, 10.9 µM (inactive); in the test on SF-295, 9.55 µM (inactive); in the test on DU-145, 16.5 µM (inactive); with RXF 393, 13.1 µM (inactive). Besides, the GI50 in the test on SW-620 was 10.2 µM (inactive); with OVCAR-8, 11.7 µM (inactive); in the test with NCI-H226, 13.5 µM (inactive); in the test with OVCAR-3, 9.68 µM (inactive); with CAKI-1, 15.6 µM (inactive); in the test on OVCAR-4, 31.4 µM (inactive). The GI50 in the test with NCI-H23 was 11.9 µM (inactive); with HCT-15, 4.41 µM; in the test with HCC 2998 it was 17.7 µM (inactive); in the test with SF-268 it was 11.5 µM (inactive); in the test with KM12, 24 µM (inactive); in the test with U-251 it was 12.5 µM (inactive). The values for the GI50 in the test on BT-549 and with MDA-MB-435 were 33.7 µM (inactive) and 23.4 µM (inactive), respectively.
Regarding `C=C1C(=O)OC2C1C(OC(=O)/C(C)=C/C)CC(O)(CCl)C1C(OC(C)=O)C=C(C)C21O` (stereo not given), the GI50 with COLO 205 is 8.3 µM (inactive); in the test on T47D, 18 µM (inactive); in the test with HT-29, 16.3 µM (inactive); in the test with SF-295, 58.5 µM (inactive); in the test with DU-145, 15.2 µM (inactive); in the test on RXF 393, 11.2 µM (inactive). In addition, the GI50 with SW-620 is 3.98 µM (inactive); in the test on OVCAR-8, 8.45 µM (inactive); with NCI-H226, 30.3 µM (inactive); in the test with OVCAR-3, 8.93 µM (inactive); in the test on CAKI-1, 7.11 µM (inactive); in the test with OVCAR-4, 17.2 µM (inactive). Moreover, the GI50 in the test on NCI-H23 was 16.6 µM (inactive); with HCT-15, 6.46 µM; in the test with HCC 2998, 16.3 µM (inactive); in the test on SF-268, 16 µM (inactive); in the test with KM12, 19.2 µM (inactive); in the test with U-251 it was 20.2 µM (inactive). For the same compound, the GI50 is 8.85 µM (inactive) with BT-549 and 20.3 µM (inactive) in the test with MDA-MB-435.
`CC(=O)OCC1OC(n2c(-c3ccccc3)c(/N=N/c3ccc(C)cc3)c(C)c(C#N)c2=S)C(OC(C)=O)C(OC(C)=O)C1OC(C)=O` (stereo not given): the GI50 was 23.1 µM (inactive) with COLO 205; 59.8 µM (inactive) in the test with T47D; 12.8 µM (inactive) in the test with HT-29; 23.6 µM (inactive) in the test with SF-295; 18.1 µM (inactive) with DU-145; 16.2 µM (inactive) in the test with RXF 393. The GI50 was 2.31 µM (inactive) in the test on SW-620; 19.7 µM (inactive) in the test with OVCAR-3; 22.9 µM (inactive) with CAKI-1; 5.87 µM (inactive) with OVCAR-4; 13.4 µM (inactive) in the test with NCI-H23; 21.1 µM in the test on HCT-15. Moreover, the GI50 in the test on HCC 2998 was 22.7 µM (inactive); in the test on SF-268 it was 9.04 µM (inactive); in the test on KM12, 8.28 µM (inactive); with U-251, 14.9 µM (inactive); with BT-549 it was 6.44 µM (inactive); with MDA-MB-435, 9.06 µM (inactive).
As to `CCCCSC1=N/C(=C\c2ccc(N(C)C)cc2)C(NN)=N1`, the GI50 in the test with T47D, in the test on HT-29, with SF-295, in the test with DU-145, in the test with RXF 393 and in the test on SW-620 was > 100 µM (inactive) in each case. Further, the GI50 in the test on OVCAR-8 was > 100 µM (inactive); with OVCAR-3, > 100 µM (inactive); with CAKI-1, > 100 µM (inactive); with OVCAR-4 it was > 100 µM (inactive); with NCI-H23, > 100 µM (inactive); with HCT-15, greater than 100 µM. Moreover, the GI50 in the test on HCC 2998, with SF-268, with KM12, in the test with U-251, in the test with BT-549 and with MDA-MB-435 was > 100 µM (inactive) in each case.
Turning to `O=C(O)CSc1nc2ccccc2[nH]1`, the GI50 in the test on T47D, in the test with HT-29, with SF-295, in the test with DU-145, in the test on RXF 393 and with SW-620 was > 100 µM (inactive) throughout. The GI50 with OVCAR-8 is > 100 µM (inactive); with OVCAR-3, > 100 µM (inactive); in the test on CAKI-1 it was > 100 µM (inactive); in the test on OVCAR-4 it was > 100 µM (inactive); in the test with NCI-H23, > 100 µM (inactive); in the test with HCT-15 it was greater than 100 µM. Besides, the GI50 in the test with HCC 2998, with SF-268, with KM12, in the test with U-251, in the test with BT-549 and in the test with MDA-MB-435 was > 100 µM (inactive) throughout.
On to `C=C1c2nc3ccccc3n2C=C(c2ccc(OC)cc2)N1c1ccc(OCCN2CCOCC2)cc1`, for which the GI50 is 10.8 µM (inactive) in the test with COLO 205; > 100 µM (inactive) with T47D; 6.24 µM (inactive) in the test with HT-29; 41.7 µM (inactive) in the test on SF-295; > 54.8 µM (inactive) with DU-145; 71.6 µM (inactive) with RXF 393. Besides, the GI50 with SW-620 is 44.3 µM (inactive); with OVCAR-8, 6.03 µM (inactive); with NCI-H226, > 100 µM (inactive); with OVCAR-3, > 100 µM (inactive); in the test on CAKI-1, 90.6 µM (inactive); in the test on OVCAR-4, 11.1 µM (inactive). Also, the GI50 in the test with NCI-H23 was > 25.2 µM (inactive); with HCT-15 it was 6.15 µM; in the test on HCC 2998, 86.3 µM (inactive); in the test on KM12 it was 15.8 µM (inactive); in the test with U-251 it was > 93.3 µM (inactive); with BT-549, 49.2 µM (inactive). The GI50 in the test with MDA-MB-435 is 24.3 µM (inactive).
As to `COc1ccc2oc(=N)c(C(=O)Nc3ccccn3)cc2c1`, the GI50 is > 100 µM (inactive) in the test with COLO 205; 37 µM (inactive) in the test with T47D; > 100 µM (inactive) with HT-29; > 100 µM (inactive) in the test with DU-145; > 100 µM (inactive) in the test on RXF 393; > 100 µM (inactive) in the test with SW-620. Besides, the GI50 in the test on OVCAR-8 is > 100 µM (inactive); in the test with NCI-H226 it was 60.3 µM (inactive); in the test with OVCAR-3 it was > 100 µM (inactive); in the test with CAKI-1 it was > 100 µM (inactive); in the test on OVCAR-4, > 100 µM (inactive); in the test with NCI-H23 it was > 100 µM (inactive). For the same compound, the GI50 is greater than 100 µM in the test with HCT-15; > 100 µM (inactive) in the test with HCC 2998; > 100 µM (inactive) with SF-268; > 100 µM (inactive) in the test with KM12; > 100 µM (inactive) in the test with U-251; > 100 µM (inactive) in the test on BT-549. Further, in the test with MDA-MB-435, the GI50 was > 100 µM (inactive).
Take `COc1cccc(/C=N/n2c(Cc3ccccc3)n[nH]c2=O)c1`: the GI50 was > 100 µM (inactive) in the test with COLO 205; > 73.6 µM (inactive) in the test with T47D; > 35.4 µM (inactive) in the test on HT-29; 38.5 µM (inactive) with SF-295; > 100 µM (inactive) in the test on DU-145; 11.2 µM (inactive) with RXF 393. Moreover, the GI50 is > 100 µM (inactive) in the test on SW-620; 69 µM (inactive) with OVCAR-8; > 100 µM (inactive) in the test with OVCAR-3; > 47.4 µM (inactive) with CAKI-1; > 100 µM (inactive) in the test on OVCAR-4; > 100 µM (inactive) in the test with NCI-H23. For the same compound, the GI50 with HCT-15 was greater than 100 µM; in the test on HCC 2998, > 100 µM (inactive); with SF-268 it was 43 µM (inactive); with KM12, > 76.2 µM (inactive); with U-251 it was > 100 µM (inactive); in the test on BT-549, > 100 µM (inactive). Besides, the GI50 with MDA-MB-435 was > 100 µM (inactive).

As usually defined, the GI50 is the concentration giving 50% growth inhibition.
